# In ChEMBL document CHEMBL4393686, “InCl3 mediated heteroarylation of indoles and their derivatization via CH activation strategy: Discovery of 2-(1H-indol-3-yl)-quinoxaline derivatives as a new class of PDE4B selective inhibitors for arthritis and/or multiple sclerosis” (Eur J Med Chem, 2019):
# How the values were obtained:
# [1] = AUC (0 to extrap) in BALB/c mouse at 10 mg/kg, iv measured for 24 hrs post dose by LC-MS/MS analysis; assay type: ADME, organism-based; details: in vivo
# [2] = Toxicity in zebrafish embryos assessed as teratogenicity score at 1 to 100 uM incubated for 5 dpf; set-up: species or system Danio rerio; details: in vivo
smiles,measurement,setting,value
C=CCn1cc(-c2nc3ccccc3nc2Cl)c2cc(OC)ccc21,%AUCextra,[1],6.23%
same,Activity,[2],Non-Toxic
